Results reported in PubChem BioAssay AID1845201 (Molecular Pharmacology Branch, DTP, NCI, 2023).
pIC50: −log10 of the molar value.

Tested on: COR L88 complex tumor spheroid viability
Test: Anticancer human tumor COR L88 cell line growth inhibition;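 further: compound exposure lasted 7 days before viability readout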;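 on viability, T/C: percent of DMSO vehicle-treated spheroids = 100%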
Conditions: for pIC50: curve of first compound; for viability, T/C: stronger effect = lower value
Summary of the method: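 Complex tumor spheroids combined malignant cells with endothelial cells and mesenchymal stem cells. DNA-damaging drugs and DNA repair inhibitors were tested alone and in combination, at half-log dilutions down from clinical Cmax (top 10 microM if Cmax unknown), 0.25% DMSO final.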

[1] = second compound 0.003 µM, first compound 0.0316 µM
[2] = second compound 0.003 µM, first compound 0.1 µM
[3] = second compound 0.003 µM, first compound 0.316 µM
[4] = second compound 0.003 µM, first compound 1 µM
[5] = second compound 0.003 µM, first compound 3.16 µM
[6] = second compound 0.003 µM, first compound 10 µM
[7] = second compound 0.00949 µM, first compound 0.0316 µM
[8] = second compound 0.00949 µM, first compound 0.1 µM
[9] = second compound 0.00949 µM, first compound 0.316 µM
[10] = second compound 0.00949 µM, first compound 1 µM
[11] = second compound 0.00949 µM, first compound 3.16 µM
[12] = second compound 0.00949 µM, first compound 10 µM
[13] = second compound 0.03 µM, first compound 0.0316 µM
[14] = second compound 0.03 µM, first compound 0.1 µM
[15] = second compound 0.03 µM, first compound 0.316 µM
[16] = second compound 0.03 µM, first compound 1 µM
[17] = second compound 0.03 µM, first compound 3.16 µM
[18] = second compound 0.03 µM, first compound 10 µM
[19] = second compound 0.0949 µM, first compound 0.0316 µM
[20] = second compound 0.0949 µM, first compound 0.1 µM
[21] = second compound 0.0949 µM, first compound 0.316 µM
[22] = second compound 0.0949 µM, first compound 1 µM
[23] = second compound 0.0949 µM, first compound 3.16 µM
[24] = second compound 0.0949 µM, first compound 10 µM
[25] = second compound 0.3 µM, first compound 0.0316 µM
[26] = second compound 0.3 µM, first compound 0.1 µM
[27] = second compound 0.3 µM, first compound 0.316 µM
[28] = second compound 0.3 µM, first compound 1 µM
[29] = second compound 0.3 µM, first compound 3.16 µM
[30] = second compound 0.3 µM, first compound 10 µM
[31] = second compound 30 pM, first compound 0.00949 µM
[32] = second compound 30 pM, first compound 0.03 µM
[33] = second compound 30 pM, first compound 0.0949 µM
[34] = second compound 30 pM, first compound 0.3 µM
[35] = second compound 30 pM, first compound 0.949 µM
[36] = second compound 30 pM, first compound 3 µM
[37] = second compound 94.9 pM, first compound 0.00949 µM
[38] = second compound 94.9 pM, first compound 0.03 µM
[39] = second compound 94.9 pM, first compound 0.0949 µM
[40] = second compound 94.9 pM, first compound 0.3 µM
[41] = second compound 94.9 pM, first compound 0.949 µM
[42] = second compound 94.9 pM, first compound 3 µM
[43] = second compound 0.0003 µM, first compound 0.00949 µM
[44] = second compound 0.0003 µM, first compound 0.03 µM
[45] = second compound 0.0003 µM, first compound 0.0949 µM
[46] = second compound 0.0003 µM, first compound 0.3 µM
[47] = second compound 0.0003 µM, first compound 0.949 µM
[48] = second compound 0.0003 µM, first compound 3 µM
[49] = second compound 0.000949 µM, first compound 0.00949 µM
[50] = second compound 0.000949 µM, first compound 0.03 µM
[51] = second compound 0.000949 µM, first compound 0.0949 µM
[52] = second compound 0.000949 µM, first compound 0.3 µM
[53] = second compound 0.000949 µM, first compound 0.949 µM
[54] = second compound 0.000949 µM, first compound 3 µM
[55] = second compound 0.003 µM, first compound 0.00949 µM
[56] = second compound 0.003 µM, first compound 0.03 µM
[57] = second compound 0.003 µM, first compound 0.0949 µM
[58] = second compound 0.003 µM, first compound 0.3 µM
[59] = second compound 0.003 µM, first compound 0.949 µM
[60] = second compound 0.003 µM, first compound 3 µM

CC(C)n1c(=O)n(C)c2cnc3cc(F)c(-c4ccc(OCCCN5CCCCC5)nc4)cc3c21 + CC[C@@]1(O)C(=O)OCc2c1cc1n(c2=O)Cc2cc3c(CN(C)C)c(O)ccc3nc2-1
pIC50 (second compound 0.003 µM): 5.29 | pIC50 (second compound 0.00949 µM): 6.80 | pIC50 (second compound 0.03 µM): > 7.50 | pIC50 (second compound 0.0949 µM): > 7.50 | pIC50 (second compound 0.3 µM): > 7.50 | viability, T/C [1]: 85% | viability, T/C [2]: 94.2% | viability, T/C [3]: 76.9% | viability, T/C [4]: 80.6% | viability, T/C [5]: 68.2% | viability, T/C [6]: 26.9% | viability, T/C [7]: 51.9% | viability, T/C [8]: 52.9% | viability, T/C [9]: 48.2% | viability, T/C [10]: 40.6% | viability, T/C [11]: 33% | viability, T/C [12]: 14.1% | viability, T/C [13]: 46.5% | viability, T/C [14]: 42.1% | viability, T/C [15]: 37.3% | viability, T/C [16]: 29.7% | viability, T/C [17]: 30.6% | viability, T/C [18]: 14.2% | viability, T/C [19]: 38.6% | viability, T/C [20]: 36.4% | viability, T/C [21]: 30.2% | viability, T/C [22]: 28.6% | viability, T/C [23]: 27.2% | viability, T/C [24]: 15.3% | viability, T/C [25]: 44.3% | viability, T/C [26]: 42.7% | viability, T/C [27]: 39% | viability, T/C [28]: 34.5% | viability, T/C [29]: 27.7% | viability, T/C [30]: 14.7%

COc1ccc([C@@H](O)c2cc(-c3ncnc4cc(N5CCOCC5)ccc34)c(F)cc2Cl)nn1 + CC[C@@]1(O)C(=O)OCc2c1cc1n(c2=O)Cc2cc3c(CN(C)C)c(O)ccc3nc2-1
pIC50 (second compound 0.003 µM): 5.50 | pIC50 (second compound 0.00949 µM): 5.40 | pIC50 (second compound 0.03 µM): 7.01 | pIC50 (second compound 0.0949 µM): 6.91 | pIC50 (second compound 0.3 µM): 6.88 | viability, T/C [1]: 96.3% | viability, T/C [2]: 101% | viability, T/C [3]: 94.2% | viability, T/C [4]: 71.8% | viability, T/C [5]: 52.3% | viability, T/C [6]: 34.6% | viability, T/C [7]: 68.3% | viability, T/C [8]: 68.7% | viability, T/C [9]: 67.9% | viability, T/C [10]: 57.6% | viability, T/C [11]: 52.9% | viability, T/C [12]: 40.6% | viability, T/C [13]: 53.1% | viability, T/C [14]: 53.6% | viability, T/C [15]: 46.6% | viability, T/C [16]: 40.1% | viability, T/C [17]: 32% | viability, T/C [18]: 38.5% | viability, T/C [19]: 55.3% | viability, T/C [20]: 53.2% | viability, T/C [21]: 45.2% | viability, T/C [22]: 40.5% | viability, T/C [23]: 31.8% | viability, T/C [24]: 31.7% | viability, T/C [25]: 54.2% | viability, T/C [26]: 51% | viability, T/C [27]: 43.9% | viability, T/C [28]: 37.6% | viability, T/C [29]: 18.6% | viability, T/C [30]: 8.14%

CNCc1ccc(-c2cc(-c3nc(-c4ccc(S(=O)(=O)C(C)C)cc4)cnc3N)on2)cc1 + COc1cc2c(cc1O)CCNC21CSC2c3c(OC(C)=O)c(C)c4c(c3C(COC1=O)N1C(O)C3Cc5cc(C)c(OC)c(O)c5C(C21)N3C)OCO4
pIC50 (second compound 30 pM): 6.40 | pIC50 (second compound 94.9 pM): 6.48 | pIC50 (second compound 0.0003 µM): 6.61 | pIC50 (second compound 0.000949 µM): 7.51 | pIC50 (second compound 0.003 µM): > 8.02 | viability, T/C [31]: 108% | viability, T/C [32]: 110% | viability, T/C [33]: 101% | viability, T/C [34]: 57.5% | viability, T/C [35]: 22.4% | viability, T/C [36]: 7.83% | viability, T/C [37]: 102% | viability, T/C [38]: 106% | viability, T/C [39]: 101% | viability, T/C [40]: 50.2% | viability, T/C [41]: 22.5% | viability, T/C [42]: 5.19% | viability, T/C [43]: 82% | viability, T/C [44]: 91.2% | viability, T/C [45]: 75.9% | viability, T/C [46]: 43.7% | viability, T/C [47]: 19.8% | viability, T/C [48]: 8.93% | viability, T/C [49]: 62.4% | viability, T/C [50]: 49.4% | viability, T/C [51]: 31.6% | viability, T/C [52]: 10.9% | viability, T/C [53]: 7.96% | viability, T/C [54]: 3.08% | viability, T/C [55]: 0.92% | viability, T/C [56]: 0.86% | viability, T/C [57]: 0.58% | viability, T/C [58]: 0.62% | viability, T/C [59]: 0.86% | viability, T/C [60]: 0.52%

Cn1ncnc1[C@H]1c2n[nH]c(=O)c3cc(F)cc(c23)N[C@@H]1c1ccc(F)cc1 + COc1cc2c(cc1O)CCNC21CSC2c3c(OC(C)=O)c(C)c4c(c3C(COC1=O)N1C(O)C3Cc5cc(C)c(OC)c(O)c5C(C21)N3C)OCO4
pIC50 (second compound 30 pM): 6.59 | pIC50 (second compound 94.9 pM): 6.92 | pIC50 (second compound 0.0003 µM): 7.40 | pIC50 (second compound 0.000949 µM): > 8.02 | pIC50 (second compound 0.003 µM): > 8.02 | viability, T/C [31]: 90.9% | viability, T/C [32]: 72.8% | viability, T/C [33]: 58.9% | viability, T/C [34]: 47.3% | viability, T/C [35]: 43.9% | viability, T/C [36]: 37.3% | viability, T/C [37]: 77.1% | viability, T/C [38]: 61.3% | viability, T/C [39]: 50.5% | viability, T/C [40]: 45.8% | viability, T/C [41]: 42.5% | viability, T/C [42]: 38.5% | viability, T/C [43]: 57.9% | viability, T/C [44]: 51.9% | viability, T/C [45]: 46.1% | viability, T/C [46]: 43.6% | viability, T/C [47]: 39.4% | viability, T/C [48]: 41% | viability, T/C [49]: 53.6% | viability, T/C [50]: 45% | viability, T/C [51]: 44.2% | viability, T/C [52]: 36.2% | viability, T/C [53]: 13.9% | viability, T/C [54]: 2.75% | viability, T/C [55]: 1.06% | viability, T/C [56]: 0.96% | viability, T/C [57]: 0.96% | viability, T/C [58]: 0.79% | viability, T/C [59]: 1.64% | viability, T/C [60]: 2.68%

O=C(c1cc(Cc2n[nH]c(=O)c3ccccc23)ccc1F)N1CCN(C(=O)C2CC2)CC1 + COc1cc2c(cc1O)CCNC21CSC2c3c(OC(C)=O)c(C)c4c(c3C(COC1=O)N1C(O)C3Cc5cc(C)c(OC)c(O)c5C(C21)N3C)OCO4
pIC50 (second compound 30 pM): 4.84 | pIC50 (second compound 94.9 pM): 4.95 | pIC50 (second compound 0.0003 µM): < 4.52 | pIC50 (second compound 0.000949 µM): 6.17 | pIC50 (second compound 0.003 µM): > 7.02 | viability, T/C [33]: 93.6% | viability, T/C [34]: 107% | viability, T/C [35]: 95% | viability, T/C [36]: 81.7% | viability, T/C (second compound 30 pM, first compound 9.49 µM): 54.6% | viability, T/C (second compound 30 pM, first compound 30 µM): 42.4% | viability, T/C [39]: 98.9% | viability, T/C [40]: 96.4% | viability, T/C [41]: 101% | viability, T/C [42]: 71.8% | viability, T/C (second compound 94.9 pM, first compound 9.49 µM): 54.9% | viability, T/C (second compound 94.9 pM, first compound 30 µM): 43% | viability, T/C [45]: 74.9% | viability, T/C [46]: 63.4% | viability, T/C [47]: 64.1% | viability, T/C [48]: 60.6% | viability, T/C (second compound 0.0003 µM, first compound 9.49 µM): 48.5% | viability, T/C (second compound 0.0003 µM, first compound 30 µM): 56.8% | viability, T/C [51]: 57.2% | viability, T/C [52]: 56.2% | viability, T/C [53]: 42.6% | viability, T/C [54]: 40.7% | viability, T/C (second compound 0.000949 µM, first compound 9.49 µM): 13.7% | viability, T/C (second compound 0.000949 µM, first compound 30 µM): 2.22% | viability, T/C [57]: 1.02% | viability, T/C [58]: 1.05% | viability, T/C [59]: 0.95% | viability, T/C [60]: 1.92% | viability, T/C (second compound 0.003 µM, first compound 9.49 µM): 2.21% | viability, T/C (second compound 0.003 µM, first compound 30 µM): 3.25%
